Source: paper PMC11672294, “The Antipsychotic Drug Aripiprazole Suppresses Colorectal Cancer by Targeting LAMP2a to Induce RNH1/miR‐99a/mTOR‐Mediated Autophagy and Apoptosis” (Advanced Science, 2024)
Counter-ions that a name gives are not always drawn.

These compounds were tested on HT29. Conditions: 72 h, relative to DMSO; 10 µM.
Procedure, shortened: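 Cells were exposed to drug for 72 h, then to WST-1 for 2 h at 37 °C, and absorbance was read at 450 nm as viability against DMSO treatment. In the screen, each compound was applied at 10 µM.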
`C[C@@H]1C[C@H]2[C@@H]3CCC4=CC(=O)C=C[C@]4(C)[C@@]3(Cl)[C@@H](O)C[C@]2(C)[C@@]1(OC(=O)c1ccco1)C(=O)CCl` [Mometasone furoate] was tested, and the “Relative cell viability (%)” value was 144.2%.
For `CC(C)(O)c1ccccc1CC[C@@H](SCC1(CC(=O)O)CC1)c1cccc(/C=C/c2ccc3ccc(Cl)cc3n2)c1` [Montelukast Sodium], the “Relative cell viability (%)” value was 74.85%.
In the case of `CCOc1cc(N)c(Cl)cc1C(=O)NCC1CN(Cc2ccc(F)cc2)CCO1` (stereo not shown) [Mosapride Citrate], the “Relative cell viability (%)” value was 38.47%.
With `CCCN(CCC)C(=O)C1=Cc2ccc(-c3ccc(C(=O)N4CCCC4)cc3)cc2N=C(N)C1` [Motolimod (VTX-2337)] the “Relative cell viability (%)” value was 31.62%.
With `COc1nc(C)nc(Cl)c1N=C1NCCN1` [Moxonidine] the “Relative cell viability (%)” value was 116.7%.
In the case of `FC(F)(F)c1ccc(/C=C/c2nc(COc3ccc(CCCCn4ccnn4)cc3)co2)cc1` [Mubritinib (TAK 165)], the “Relative cell viability (%)” value was 116.7%.
In the case of `C/C(=C\C(=O)OCCCCCCCCC(=O)O)C[C@@H]1OC[C@H](C[C@@H]2O[C@H]2[C@@H](C)[C@H](C)O)[C@@H](O)[C@H]1O` [Mupirocin], the “Relative cell viability (%)” value was 92.12%.
`N=C(N)c1ccc2cc(OC(=O)c3ccc(N=C(N)N)cc3)ccc2c1` [Nafamostat Mesylate] was tested, and the “Relative cell viability (%)” value was 66.51%.
With `COc1ccccc1N1CCN(CC(O)COc2cccc3ccccc23)CC1` (stereo not shown) [Naftopidil] the “Relative cell viability (%)” value was 100.8%.
With `CCn1cc(C(=O)O)c(=O)c2ccc(C)nc21` [Nalidixic acid] the “Relative cell viability (%)” value was 106.7%.
With `C=CCN1CC[C@]23c4c5ccc(O)c4O[C@H]2C(=O)CC[C@@]3(O)[C@H]1C5` [Naloxone HCl] the “Relative cell viability (%)” value was 95.63%.
With `O=C1CC[C@@]2(O)[C@H]3Cc4ccc(O)c5c4[C@@]2(CCN3CC2CC2)[C@H]1O5` [Naltrexone HCl] the “Relative cell viability (%)” value was 104.3%.
In the case of `CC(=O)c1cc2c(o1)C(=O)c1ccccc1C2=O` [Napabucasin], the “Relative cell viability (%)” value was 0%.
With `Cc1cccc(C)c1NC(=O)CN1CCCC1=O` [Nefiracetam] the “Relative cell viability (%)” value was 192.8%.
For `COc1nc(N)nc2c1ncn2[C@@H]1O[C@H](CO)[C@@H](O)[C@@H]1O` [Nelarabine], the “Relative cell viability (%)” value was 86.76%.
`Cc1c(O)cccc1C(=O)N[C@@H](CSc1ccccc1)[C@H](O)CN1C[C@H]2CCCC[C@H]2C[C@H]1C(=O)NC(C)(C)C` [Nelfinavir Mesylate] was tested, and the “Relative cell viability (%)” value was 23.94%.
In the case of `NC(=O)Cc1cccc(C(=O)c2ccccc2)c1N` [Nepafenac], the “Relative cell viability (%)” value was 77.41%.
With `CCOc1cc2ncc(C#N)c(Nc3ccc(OCc4ccccn4)c(Cl)c3)c2cc1NC(=O)/C=C/CN(C)C` [Neratinib (HKI-272)] the “Relative cell viability (%)” value was 97.84%.
For `Cc1ccnc2c1NC(=O)c1cccnc1N2C1CC1` [Nevirapine], the “Relative cell viability (%)” value was 94.49%.
With `COC(=O)C1=C(C)NC(C)=C(C(=O)OCCN(C)Cc2ccccc2)C1c1cccc([N+](=O)[O-])c1` (stereo not shown) [Nicardipine HCl] the “Relative cell viability (%)” value was 83.03%.
For `O=C(NCCO[N+](=O)[O-])c1cccnc1` [Nicorandil], the “Relative cell viability (%)” value was 198.8%.
With `NC(=O)c1cccnc1` [Nicotinamide (Vitamin B3)] the “Relative cell viability (%)” value was 113.7%.
In the case of `O=C(O)c1cccnc1` [Nicotinic Acid], the “Relative cell viability (%)” value was 70.34%.
With `O=C(O)c1cccnc1Nc1cccc(C(F)(F)F)c1` [Niflumic acid] the “Relative cell viability (%)” value was 95.63%.
In the case of `O=C(N/N=C/c1ccc([N+](=O)[O-])o1)c1ccc(O)cc1` [Nifuroxazide], the “Relative cell viability (%)” value was 43.03%.
`COC(=O)C1=C(C#N)NC(C)=C(C(=O)OC(C)C)C1c1cccc([N+](=O)[O-])c1` (stereo not shown) [Nilvadipine] was tested, and the “Relative cell viability (%)” value was 81.07%.
`CS(=O)(=O)Nc1ccc([N+](=O)[O-])cc1Oc1ccccc1` [Nimesulide] was tested, and the “Relative cell viability (%)” value was 191.7%.
In the case of `COCCOC(=O)C1=C(C)NC(C)=C(C(=O)OC(C)C)C1c1cccc([N+](=O)[O-])c1` (stereo not shown) [Nimodipine], the “Relative cell viability (%)” value was 53.81%.
`COC(=O)C1=C(C)NC(C)=C(C(=O)OCC(C)C)C1c1ccccc1[N+](=O)[O-]` (stereo not shown) [Nisoldipine] was tested, and the “Relative cell viability (%)” value was 56.36%.
For `CNC(=C[N+](=O)[O-])NCCSCc1csc(CN(C)C)n1` [Nizatidine], the “Relative cell viability (%)” value was 77.97%.
For `NC[C@H](O)c1ccc(O)c(O)c1` [Noradrenaline bitartrate monohydrate], the “Relative cell viability (%)” value was 75.24%.
In the case of `C[C@@H]1[C@H](O)[C@@H](C)/C=C/C=C/CC/C=C/C=C/C=C/C=C/[C@H](O[C@H]2O[C@@H](C)[C@H](O)[C@@H](N)[C@H]2O)C[C@@H]2O[C@](O)(C[C@@H](O)[C@H](O)CC[C@@H](O)C[C@@H](O)C[C@@H](O)CC(=O)O[C@H]1C)C[C@H](O)[C@H]2C(=O)O` [Nystatin (Fungicidin)], the “Relative cell viability (%)” value was 170.8%.
For `CC[C@H]1[C@@H](O)[C@@H]2[C@H](CC[C@]3(C)[C@@H]([C@H](C)CCC(=O)O)CC[C@@H]23)[C@@]2(C)CC[C@@H](O)C[C@@H]12` [Obeticholic Acid], the “Relative cell viability (%)” value was 111.1%.
`Cc1c(-c2cnccn2)ssc1=S` [Oltipraz] was tested, and the “Relative cell viability (%)” value was 84.19%.
In the case of `COc1ccc2[nH]c([S+]([O-])Cc3ncc(C)c(OC)c3C)nc2c1` (stereo not shown) [Omeprazole], the “Relative cell viability (%)” value was 88.32%.
With `O=C(O)c1cc(=O)[nH]c(=O)[nH]1` [Orotic acid (6-Carboxyuracil)] the “Relative cell viability (%)” value was 101.4%.
With `Cc1ccccc1C(OCCN(C)C)c1ccccc1` (stereo not shown) [Orphenadrine Citrate] the “Relative cell viability (%)” value was 102.4%.
With `CCOC(=O)C1=C[C@@H](OC(CC)CC)[C@H](NC(C)=O)[C@@H](N)C1` [Oseltamivir Phosphate] the “Relative cell viability (%)” value was 60.68%.
`OCCOc1ccc(/C(=C(/CCCl)c2ccccc2)c2ccccc2)cc1` [Ospemifene] was tested, and the “Relative cell viability (%)” value was 80.303%.
With `CCNC1(C(N)=O)CCN(c2ncnc3c2nc(-c2ccccc2Cl)n3-c2ccc(Cl)cc2)CC1` [Otenabant (CP-945598) HCl] the “Relative cell viability (%)” value was 70.09%.
In the case of `CCCCCCCCOc1ccccc1C(=O)Nc1ccc(C(=O)OCC[N+](C)(CC)CC)cc1` [Otilonium Bromide], the “Relative cell viability (%)” value was 59.22%.
For `O=C(O)CCc1nc(-c2ccccc2)c(-c2ccccc2)o1` [Oxaprozin], the “Relative cell viability (%)” value was 63.03%.
In the case of `COC(=O)Nc1nc2ccc([S+]([O-])c3ccccc3)cc2[nH]1` (stereo not shown) [Oxfendazole], the “Relative cell viability (%)” value was 57.63%.
For `NC(=O)CN1CC(O)CC1=O` (stereo not shown) [Oxiracetam], the “Relative cell viability (%)” value was 54.85%.
`COc1ccc(C(=O)c2ccccc2)c(O)c1` [Oxybenzone] was tested, and the “Relative cell viability (%)” value was 118.8%.
In the case of `CCCCOc1cc(C(=O)OCCN(CC)CC)ccc1N` [Oxybuprocaine HCl], the “Relative cell viability (%)” value was 56.67%.
For `CCN(CC)CC#CCOC(=O)C(O)(c1ccccc1)C1CCCCC1` (stereo not shown) [Oxybutynin], the “Relative cell viability (%)” value was 58.9%.
`CN(C)[C@@H]1C(O)=C(C(N)=O)C(=O)[C@@]2(O)C(O)=C3C(=O)c4c(O)cccc4[C@@](C)(O)[C@H]3[C@H](O)[C@@H]12` [Oxytetracycline Dihydrate] was tested, and the “Relative cell viability (%)” value was 170.4%.
With `O=C(O)/C=C/c1ccc(Cn2ccnc2)cc1` [Ozagrel HCl] the “Relative cell viability (%)” value was 127.9%.
With `CC(C)Oc1ccc(-c2nc(-c3cccc4c3CC[C@@H]4NCCO)no2)cc1C#N` [Ozanimod (RPC1063)] the “Relative cell viability (%)” value was 47.01%.
For `Fc1ccc([C@@H]2CCNC[C@H]2COc2ccc3c(c2)OCO3)cc1` [Paroxetine HCl], the “Relative cell viability (%)” value was 19.9%.
In the case of `Cc1ccc(Nc2nccc(N(C)c3ccc4c(C)n(C)nc4c3)n2)cc1S(N)(=O)=O` [Pazopanib], the “Relative cell viability (%)” value was 46.12%.
In the case of `Nc1nc2c(ncn2CCC(CO)CO)c(=O)[nH]1` [Penciclovir], the “Relative cell viability (%)” value was 100.303%.
For `N#Cc1ccccc1-c1cc(-c2ccccn2)cn(-c2ccccc2)c1=O` [Perampanel], the “Relative cell viability (%)” value was 104.7%.
With `FC(F)(F)c1ccc(CNc2ccc(Cc3c[nH]c4ncc(Cl)cc34)cn2)cn1` [Pexidartinib (PLX3397)] the “Relative cell viability (%)” value was 54.7%.
For `Cc1ccc(-n2nc(C(C)(C)C)cc2NC(=O)NCc2cc(F)ccc2Oc2ccc3c(cnn3CCO)c2)cc1` [Pexmetinib (ARRY-614)], the “Relative cell viability (%)” value was 47.01%.
`Nc1ccc(/N=N/c2ccccc2)c(N)n1` [Phenazopyridine HCl] was tested, and the “Relative cell viability (%)” value was 73.94%.
`O=C1c2ccccc2C(=O)C1c1ccccc1` [Phenindione] was tested, and the “Relative cell viability (%)” value was 136.8%.
With `COc1ccc(Cl)c(Nc2nc3ccccc3nc2NS(=O)(=O)c2cccc(NC(=O)C(C)(C)N)c2)c1` [Pilaralisib (XL147)] the “Relative cell viability (%)” value was 48.29%.
`CC[C@@H]1/C=C(\C)C[C@H](C)C[C@H](OC)[C@H]2O[C@@](O)(C(=O)C(=O)N3CCCC[C@H]3C(=O)O[C@H](/C(C)=C/[C@@H]3CC[C@H](Cl)[C@H](OC)C3)[C@H](C)[C@@H](O)CC1=O)[C@H](C)C[C@@H]2OC` [Pimecrolimus] was tested, and the “Relative cell viability (%)” value was 64.96%.
With `CCc1ccc(CCOc2ccc(CC3SC(=O)NC3=O)cc2)nc1` (stereo not shown) [Pioglitazone HCl] the “Relative cell viability (%)” value was 158.4%.
With `CCN1CCN(C(=O)N[C@@H](C(=O)N[C@@H]2C(=O)N3[C@@H]2SC(C)(C)[C@@H]3C(=O)O)c2ccccc2)C(=O)C1=O` [Piperacillin Sodium] the “Relative cell viability (%)” value was 73.94%.
`O=C(/C=C/C=C/c1ccc2c(c1)OCO2)N1CCCCC1` [Piperine] was tested, and the “Relative cell viability (%)” value was 104.9%.
`Cc1ccc(=O)n(-c2ccccc2)c1` [Pirfenidone] was tested, and the “Relative cell viability (%)” value was 56.31%.
`O=C(O)C[C@H](O)C[C@H](O)/C=C/c1c(C2CC2)nc2ccccc2c1-c1ccc(F)cc1` [Pitavastatin Calcium] was tested, and the “Relative cell viability (%)” value was 44.92%.
`CC[C@@H]([C@H](C)O)n1ncn(-c2ccc(N3CCN(c4ccc(OC[C@@H]5CO[C@@](Cn6cncn6)(c6ccc(F)cc6F)C5)cc4)CC3)cc2)c1=O` [Posaconazole] was tested, and the “Relative cell viability (%)” value was 32.24%.
`C=CN1CCCC1=O` [Povidone iodine] was tested, and the “Relative cell viability (%)” value was 91.88%.
`C=CC(=O)N1CCC(Oc2cc3c(Nc4ccc(Cl)c(Cl)c4F)ncnc3cc2OC)CC1` [Poziotinib (HM781-36B)] was tested, and the “Relative cell viability (%)” value was 68.8%.
`CCCN[C@H]1CCc2nc(N)sc2C1` [Pramipexole dihydrochloride monohydrate] was tested, and the “Relative cell viability (%)” value was 205.2%.
With `CC(C)N(CCNC(=O)CN1CCCC1=O)C(C)C` [Pramiracetam] the “Relative cell viability (%)” value was 79.61%.
